{
  "source": "patent US7705020B2",
  "about": "“Benzimidazolone carboxylic acid derivatives” (Pfizer Inc., priority 2004, dated 2010)",
  "data": [
    {"molecule": "CC(C)n1c(=O)n(C(=O)NCC2CCN(CC3(C(=O)O)CCOCC3)CC2)c2ccccc21", "note": "[Example 1, 4-{[4-({[(3-isopropyl-2-oxo-2,3-dihydro-1H-benzimidazol-1-yl)carbonyl]amino}methyl)piperidin-1-yl]methyl}tetrahydro-2H-pyran-4-carboxylic acid]", "values": [
      {"measurement": "melting point", "result": 223, "unit": "°C"}
    ]}
  ]
}
